Assay results: US11873298B2, “Compounds and uses thereof” (JANSSEN PHARMACEUTICA NV, priority 2017, dated 2024)
Several values for one entry are separate records, joined by “and”; a condition that tells them apart may be missing. Identical values can stand only once.

Key:
SCD1 = molecular target: T1, SCD1 (Homo sapiens, UniProt O00767); assay: Growth inhibition of humanized yeast strain expressing SCD1 as sole desaturase; assay type: cell-based; settings: humanized yeast strain expressing SCD1
T1 construct: host or cells: S. cerevisiae ole1Δ strain (W303 pdr1Δ pdr3Δ background), plasmid pRS316 with TDH3 promoter and CYC1 terminator
T1 sequence (O00767 1-359): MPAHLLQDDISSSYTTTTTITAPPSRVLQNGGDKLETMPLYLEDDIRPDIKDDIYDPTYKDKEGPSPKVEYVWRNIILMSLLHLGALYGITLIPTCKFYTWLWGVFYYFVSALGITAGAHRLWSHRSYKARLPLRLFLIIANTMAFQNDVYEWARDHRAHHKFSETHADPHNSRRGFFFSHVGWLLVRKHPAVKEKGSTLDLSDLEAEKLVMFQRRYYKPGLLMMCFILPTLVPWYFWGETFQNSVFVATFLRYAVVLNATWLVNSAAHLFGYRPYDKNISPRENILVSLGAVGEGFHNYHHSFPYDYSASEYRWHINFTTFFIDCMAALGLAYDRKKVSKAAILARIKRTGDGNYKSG
In short: (§1)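 ole1Δ yeast (W303 pdr1Δ pdr3Δ background) carrying plasmid-borne Ole1, SCD1 or SCD5, grown in uracil-free media; cultures pre-grown in raffinose, seeded at 2× density 0.02 in galactose media with compound. Growth read as OD600 after 24 h at 30° C. for Ole1, 40 h for SCD1/SCD5.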

SCD5 = molecular target: T2, SCD5 (Homo sapiens, UniProt Q86SK9); assay: Growth inhibition of humanized yeast strain expressing SCD5 as sole desaturase; assay type: cell-based; settings: humanized yeast strain expressing SCD5
T2 construct: host or cells: S. cerevisiae ole1Δ strain (W303 pdr1Δ pdr3Δ background), plasmid pRS316 with TDH3 promoter and CYC1 terminator
T2 sequence (Q86SK9 1-330): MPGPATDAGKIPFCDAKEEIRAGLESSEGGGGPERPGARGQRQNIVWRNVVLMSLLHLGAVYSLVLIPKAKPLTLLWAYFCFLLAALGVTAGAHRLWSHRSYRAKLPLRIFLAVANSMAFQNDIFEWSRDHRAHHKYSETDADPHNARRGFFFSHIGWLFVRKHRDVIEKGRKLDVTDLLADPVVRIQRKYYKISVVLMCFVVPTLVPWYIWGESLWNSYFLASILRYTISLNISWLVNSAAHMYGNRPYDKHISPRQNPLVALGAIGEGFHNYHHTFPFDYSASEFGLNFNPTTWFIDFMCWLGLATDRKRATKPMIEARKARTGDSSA
In short: as §1

[1] = tested on: yeast strains expressing the human α-synuclein; assay: Yeast α-synuclein toxicity rescue assay (OD600 growth); settings: 40 h; for EC50: read-out: α-Syn EC50; for Emax: read-out: α-Syn Emax
Ole1 = molecular target: T3, Ole1 (Saccharomyces cerevisiae, UniProt P21147); assay: Growth inhibition of yeast strain expressing Ole1 as sole desaturase; assay type: cell-based; settings: yeast strain expressing Ole1 as sole desaturase
T3 construct: expressed in transfected cells; host or cells: S. cerevisiae ole1Δ strain (W303 pdr1Δ pdr3Δ background), plasmid pRS316 with TDH3 promoter and CYC1 terminator
T3 sequence (P21147 1-510): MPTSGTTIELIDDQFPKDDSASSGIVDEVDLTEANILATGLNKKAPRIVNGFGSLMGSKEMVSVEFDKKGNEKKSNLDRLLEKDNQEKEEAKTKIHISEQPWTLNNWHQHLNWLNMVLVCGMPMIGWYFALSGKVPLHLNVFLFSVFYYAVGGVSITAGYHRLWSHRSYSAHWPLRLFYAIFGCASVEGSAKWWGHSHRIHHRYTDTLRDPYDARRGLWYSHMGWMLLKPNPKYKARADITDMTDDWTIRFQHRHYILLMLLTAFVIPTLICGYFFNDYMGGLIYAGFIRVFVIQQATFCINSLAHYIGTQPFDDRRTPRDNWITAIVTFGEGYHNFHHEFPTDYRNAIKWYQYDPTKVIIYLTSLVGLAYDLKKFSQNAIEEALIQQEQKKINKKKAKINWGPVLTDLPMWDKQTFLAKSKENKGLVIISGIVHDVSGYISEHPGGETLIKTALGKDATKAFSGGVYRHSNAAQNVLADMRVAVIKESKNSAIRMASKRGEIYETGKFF
In short: as §1

Row | SMILES | IC50 (SCD1) | SCD1 % Max Inhibition (SCD1) | IC50 (SCD5) | SCD5 % Max Inhibition (SCD5) | EC50 [1] | Emax [1] | IC50 (Ole1) | OLE1 % Max Inhibition (Ole1)
1 | Cc1nn(C)c2cc(-c3noc(C4CCN(C(=O)C5CC(=O)N(c6ccc(C#N)cc6)C5)CC4)n3)ccc12 (centres unmarked) [Compound 139] | > 45 µM | 87.50% | > 45 µM | 75.11% | 0.021 µM | 437% | > 45 µM | 25.30%
2 | CCOc1ccc(-c2noc(C3CCN(C(=O)C(C)N4Cc5ccccc5C4=O)CC3)n2)cc1OC (centres unmarked) [Compound 140] | > 45 µM | 77.37% and 75.00% |  | 3.46% and 10.16% | 0.049 µM | 322% | > 45 µM | 3.96% and 4.98%
3 | Cc1nn(C)c2cc(-c3noc(C4CCN(C(=O)C(C)N5Cc6ccccc6C5=O)CC4)n3)ccc12 (centres unmarked) [Compound 141] | > 45 µM | 86.53% | > 45 µM | 78.91% | 0.019 µM | 259% | > 45 µM | 1.77%
4 | CCOc1ccc(-c2noc(C3CCN(C(=O)CN4Cc5ccccc5C4=O)CC3)n2)nc1OC [Compound 142] | > 45 µM | 80.83% | > 45 µM | 26.00% | 7.64 µM | 319% | > 45 µM | 1.11%
5 | COc1ccc(-c2noc(C3CCN(C(=O)CNC(=O)N4CCCCC4)CC3)n2)cc1OC [Compound 143] | > 45 µM | 79.38% | > 45 µM | 96.06% | 16.9 µM | 73% | > 45 µM | 95.01%
6 | COc1ccc(-c2noc(C3CCN(C(=O)CNC(=O)c4ccccc4OC)CC3)n2)cc1OC [Compound 144] | > 45 µM | 79.00% | > 45 µM | 84.27% | 0.521 µM | 537% | > 45 µM | 100.96%
7 | COc1ccc(-c2noc(C3CCN(C(=O)CNC(=O)c4ccccn4)CC3)n2)cc1OC [Compound 145] | > 45 µM | 78.31% | > 45 µM | 86.51% | 0.1 µM | 432% | 15.8 µM | 51.17%
8 | Cc1nn(C)c2nc(-c3noc(C4CCN(C(=O)CN5Cc6ccccc6C5=O)CC4)n3)ccc12 [Compound 146] | 37.8 µM | 60.81% | > 45 µM | 25.62% | 1.94 µM | 516% | > 45 µM | 3.28%
9 | CCOc1cnc(-c2noc(C3CCN(C(=O)CN4Cc5ccccc5C4=O)CC3)n2)cc1OC [Compound 147] | > 45 µM | 74.14% | > 45 µM | 86.70% | 17.9 µM | 453% | > 45 µM | 9.34%
10 | CCOc1ccc(-c2noc(C3CCN(C(=O)[C@H]4CN(c5ccccc5)C(=O)O4)CC3)n2)cc1OC [Compound 148] | > 45 µM | 79.55% | > 45 µM | 86.53% | 13.7 µM | 258% | > 45 µM | 99.90%
11 | Cc1nn(C)c2cc(-c3noc(C4CCN(C(=O)[C@@H]5CN(c6ccccc6)C(=O)O5)CC4)n3)ccc12 [Compound 149] | > 45 µM | 69.75% | > 45 µM | 38.72% | 0.06 µM | 458% | > 45 µM | 90.68%
12 | COc1ccnc(C(=O)NCC(=O)N2CCC(c3nc(-c4ccc5c(C)nn(C)c5c4)no3)CC2)c1 [Compound 150] | > 45 µM | 74.48% | > 45 µM | 86.15% | 0.099 µM | 473% | > 45 µM | 5.16%
13 | COc1ccc(C(=O)NCC(=O)N2CCC(c3nc(-c4ccc5c(C)nn(C)c5c4)no3)CC2)nc1 [Compound 151] | > 45 µM | 75.63% | > 45 µM | 20.68% | 0.045 µM | 405% | > 45 µM | 2.67%
14 | COc1ccccc1C(=O)NCC(=O)N1CCC(c2nc(-c3ccc4c(C)nn(C)c4c3)no2)CC1 [Compound 152] | > 45 µM | 83.39% | > 45 µM | 60.91% | 0.134 µM | 474% | > 45 µM | 2.37%
15 | Cc1nn(C)c2cc(-c3noc(C4CCN(C(=O)CNC(=O)c5ccccn5)CC4)n3)ccc12 [Compound 153] | > 45 µM | 75.76% | > 45 µM | 87.51% | 0.02 µM | 271% | > 45 µM | 2.75%
16 | COc1cccc(C(=O)NCC(=O)N2CCC(c3nc(-c4ccc5c(C)nn(C)c5c4)no3)CC2)n1 [Compound 154] | > 45 µM | 68.90% | > 45 µM | 3.25% | 0.057 µM | 410% | > 45 µM | 1.20%
17 | Cc1ccc(-c2noc(C3CCN(C(=O)C4CC(=O)N(c5ccc(C)c(C)c5)C4)CC3)n2)cc1 (centres unmarked) [compound 2] | > 45 µM |  | > 45 µM |  | 8.57 µM | 80% | > 45 µM | 
18 | COc1ccccc1-c1noc(C2CCN(C(=O)CNC(=O)c3ccccc3)CC2)n1 [compound 12] | > 45 µM |  | > 45 µM |  | 16.2 µM | 43% | > 45 µM | 
19 | Cc1ccc(-c2nc(C3CCN(C(=O)[C@@H]4CC(=O)N(c5ccc(C)c(C)c5)C4)CC3)no2)cc1 [compound 72] | 27.3 µM |  | 33 µM |  | 12.7 µM | 35% | > 45 µM | 
20 | O=C(NCC(=O)N1CCC(c2nc(-c3ccccn3)no2)CC1)c1ccccc1 [compound 78] | > 45 µM |  | > 45 µM |  | 14.6 µM | 38% | 38.3 µM | 
21 | O=C(NCC(=O)N1CCC(c2nc(-c3ccc4cn[nH]c4c3)no2)CC1)c1ccccc1 [compound 88] | 33.5 µM |  | > 45 µM |  | 9.04 µM | 130% | > 45 µM | 
22 | Cc1nn(C)c2cc(-c3noc(C4CCN(C(=O)C5CC(=O)N(c6ccccc6)C5)CC4)n3)ccc12 (centres unmarked) [compound 89] | > 45 µM |  | > 45 µM |  | 0.165 µM | 580% | > 45 µM | 
23 | Cc1nn(C)c2cc(-c3noc(C4CCN(C(=O)[C@H]5CC(=O)N(c6ccccc6)C5)CC4)n3)ccc12 [compound 90] | > 45 µM |  | > 45 µM |  | 1.65 µM | 281% | > 45 µM | 
24 | Cc1nn(C)c2cc(-c3noc(C4CCN(C(=O)[C@@H]5CC(=O)N(c6ccccc6)C5)CC4)n3)ccc12 [compound 91] | > 45 µM |  | > 45 µM |  | 0.107 µM | 452% | > 45 µM | 
